Consider one compound from patent publication US20100178652A1, “Materials and Methods for the Detection, Prevention and Treatment of Autoimmune Disease” (priority 2007, published 2010).

The subject of experiment [1] is STAT5 phosphorylation. The experiment can be described thus: Persistence of STAT5 phosphorylation in mature myeloid cells when GM-CSF signaling is blocked. The class given is cell-based, NOD mouse. Particulars: NOD mature myeloid cells, once activated; inhibition of GM-CSF signaling. From the text:
Flow cytometric analysis of fluorescently-conjugated antibody surface and intracellular binding will be used to phenotypically identify myeloid cells and quantify the level of STAT5 tyrosine phosphorylation in cells ex vivo and after in vitro stimulation. Cells will be first labeled with anti-CD11b and anti-IgM antibody conjugates to identify monocytes and macrophages (CD11b+/IgM−) in the sample, then fixed with 2% (v/v Cf) formaldehyde and permeabilized using 0.5% saponin in a high protein, isotonic buffer. Intracellular staining of STAT5Ptyr will be done using APC-conjugated anti-STAT5Ptyr specific monoclonal antibodies (Upstate Biotech, conjugated using Prozyme APC-labeling kit). This method is well developed in our laboratory and has shown good consistency in current studies. We will analyze the percentage of positive myeloid cells (% STATPtyr+/CD11b+) as well as mean fluorescence (MF) to assess both the number of cells in the myeloid population with activated STAT5 and the relative amount of phosphorylated STAT5 per cells after treatment. After flow analysis, the labeled cells are centrifuged onto slides and stain them for chromatin (DAPI, Molecular Probes). These cells were used for imaging by deconvolution microscopy as previously described and then used 3 dimensional projection rotational analysis to identify subcellular location of activated STAT5.

For experiment [2], the system named is STAT5 phosphorylation. The conditions noted are these: mature monocytes and macrophages; blocking GM-CSF signaling; ref [20]; cited from earlier work.

As for `N#C/C(=C/c1ccc(O)c(O)c1)C(=O)NCc1ccccc1` [AG490], the “persistence of STAT5 phosphorylation” value in the experiment with STAT5 phosphorylation [1] was “not affected”. In the experiment on STAT5 phosphorylation [2], the “persistence of phosphorylated STAT5” value was “does not affect”.
